What was measured:
[1] = Method A: photostability in a non-hydrated state (solid state), dried films under LED light; format: physicochemical; settings: various tetrapyrroles; PVOH 89 kDa, >99% hydrolysis and tannic acid; 72 h simulated sunlight
Method: Fifty microlitres of each formulation was pipetted into 12 wells of a 96-well clear-bottom black microplate (Thomas Scientific, Swedesboro, N.J.) and dried into thin films using a dehydrator (Gourmia GFD1680) at a temperature of 45° C. for 3 h. At the beginning of the experiment, the microplate was placed under a Heliospectra RX30 LED light array (Heliospectra, San […], Calif.). The LED array was adjusted such that the microplates received on average 1300 μmol/m^2/s of light intensity. The microplate was tightly covered with aluminum foil and at select intervals peeled back to irradiate films with either 0 h, 24 h, 48 h or 72 h of light. […] An absorbance spectral scan was conducted on the microplate (350-750 nm) using a plate reader (Spectramax M2E, Molecular Devices, San Jose, Calif.) and the peak intensity was monitored at 24 h, 48 h and/or 72 h timepoints and compared with the corresponding 0 h timepoint to determine the degree of photodegradation. The % photosensitizer remaining after irradiation was calculated using the following equation: [formula] where Abst is the absorbance peak of the sample receiving t hours of light exposure; Abs0 is the absorbance peak of the sample receiving no light exposure. All data is expressed as mean±standard deviation.

[2] = Method B: photostability in solution (liquid state) under LED light; format: physicochemical; settings: various tetrapyrroles; PVOH 89 kDa, >99% hydrolysis and tannic acid; 6 h simulated light
Method: Fifty microlitres of each formulation was pipetted into 12 wells of a 96-well clear-bottom black microplate (Thomas Scientific, Swedesboro, N.J.), followed by the addition of 50 μL dH2O. The sample was sealed with a microplate clear adhesive film to minimize water evaporation. At the beginning of experiment, the microplate was placed under a Heliospectra RX30 LED light array (Heliospectra, San […], Calif.). The LED array was adjusted such that the microplates received on average 1300 μmol/m^2/s of light intensity. […] The % photosensitizer remaining after irradiation was calculated using the following equation: [formula] where Abst is the absorbance peak of the sample receiving t hours of light exposure; Abs0 is the absorbance peak of the sample receiving no light exposure. All data is expressed as mean±standard deviation.

Sclerotinia homoeocarpa [3] = assay: Agar protocol: control of dollar spot fungus with modified Ce6; format: cell-based; settings: Agar data, 10 uM
Method: Agar protocol: control of dollar spot fungus (Sclerotinia homoeocarpa) with modified Ce6 was assessed. Treatments were amended into Potato Dextrose Agar (PDA) at desired concentrations. Then, a 5 mm diameter plug of a Sclerotinia homoeocarpa isolate (3 isolates total tested) was inoculated into the center of the amended Petri-dish and incubated at 21° C. in the dark for 24 hours. After 24 hours, one set of Petri-dishes (in triplicate) was left in the dark and one set was placed under illumination for the remainder of the experiment (all at 21° C.). Radial growth of the fungus was monitored daily until the growth of S. homoeocarpa on non-amended PDA reaches the edge of the Petri-dish. Illumination was provided by fluorescent lights emitting about 180 μmol/m2/s photosynthetically active radiation (PAR).

Sclerotinia homoeocarpa [4] = assay: Broth protocol: control of dollar spot fungus with modified chlorins; format: cell-based; settings: Broth data; for Inhibition, % (Light): light 1 hour, about 1000 μmol/m2/s PAR
Method: Broth protocol: control of dollar spot fungus (Sclerotinia homoeocarpa) with modified chlorins was assessed. Treatments were prepared in Phosphate Buffered Saline (PBS) in 24 well plates (in duplicates for light vs. dark incubation) at desired concentrations. Then, a 5 mm diameter plug of a Sclerotinia homoeocarpa isolate (3 isolates total tested) was inoculated into the PBS and incubated at 21° C. in the dark for 2 hours. After 2 hours, one of the 24 well plates (with isolates in triplicate) was left in the dark and one 24 well plate was placed under illumination for 1 hour (all at 21° C.). Following illumination, fungal plugs were removed from PBS, blotted dry on sterile filter paper and transferred to non-amended Potato Dextrose Agar (PDA). Radial growth of the fungus was monitored daily until the growth of S. homoeocarpa reached the edge of the Petri-dish. Illumination was provided by LED lights emitting about 1000 μmol/m2/s photosynthetically active radiation (PAR).

[5] = test system: Pseudomonas syringae pv. tabaci; assay: In vitro photodynamic inactivation of Pseudomonas syringae pv. tabaci with modified Ce6; format: cell-based
Method: Experiments were conducted to evaluate control of the gram-negative bacterial plant pathogen Pseudomonas syringae pv. tabaci with modified Ce6. Treatments were prepared in Phosphate Buffered Saline (PBS) in 96 well plates at desired concentrations. A bacterial suspension was inoculated into the PBS and incubated at 28° C. in the dark for 30 min. After 30 min, the 96 well plate was placed under illumination for 1 hour (at 21° C.). A separate plate prepared at the same time was kept in the dark without illumination and served as dark control. Following illumination, bacterial suspensions were serially diluted and 10 μL of each dilution was spread uniformly on Tryptic Soy Agar (TSA) plates and placed in the dark in an incubator at 28° C. for 48 hours. After 48 hours, bacterial colonies were counted and results were log transformed (log colony forming units (CFU)/mL). The relative inactivation was determined by taking the difference between log CFU(PBS control) and log CFU (treatments). Sample Illumination was provided by LED lights (Heliospectra RX30) emitting about 1000 μmol/m^2/s photosynthetically active radiation (PAR).

[6] = test system: Kentucky bluegrass (Poa pratensis); assay: Kentucky bluegrass tolerance to salt stress (turf quality); format: in vivo; settings: 170 mM NaCl, 2 salt applications; scale of 1-9 (1=dead, 9=healthy); untreated control 5
Method: Kentucky bluegrass (Poa pratensis) was grown under greenhouse conditions for ˜3 weeks. After 3 weeks, plants were sprayed with formulations and allowed to sit for 24 hours, after which the pots were placed in a 170 mM NaCl solution until the soil was saturated. The salt application was repeated again 7 days later for a total of 2 salt applications. Salinity stress was evaluated based on a turf quality scale of 1-9; where 1=dead, brown turf; 6=minimally acceptable turf quality (based on standards for golf courses or sports fields); and 9=dense, dark green turf (healthy). Data are average of 5 replicates.

[7] = test system: Pseudomonas syringae pv. tabaci; assay: In vitro effect of PP IX and modified PP IX on Pseudomonas syringae pv. tabaci, with and without chelating agent; format: cell-based; settings: 10 μM; illumination 1 hour, about 1000 μmol/m^2/s PAR; PBS control 8.7
Method: In this example, control of the gram-negative bacterial plant pathogen Pseudomonas syringae pv. tabaci with PP IX and modified PP IX was assessed, with and without chelating agents. Treatments were prepared in Phosphate Buffered Saline (PBS) in 96 well plates at desired concentrations. A bacterial suspension was inoculated into the PBS and incubated at 28° C. in the dark for 30 minutes. After 30 minutes, the 96 well plate was placed under illumination for 1 hour (at 21° C.). Following illumination, bacterial suspensions were serially diluted and 10 μL of each dilution is spread uniformly on Tryptic Soy Agar (TSA) plates and placed in the dark in an incubator at 28° C. for 48 hours. After 48 hours, bacterial colonies were counted, and the results were log transformed (log colony forming units (CFU)/mL). The relative inactivation was determined by taking the difference between log CFU(PBS control) and log CFU(treatments). Sample Illumination was provided by LED lights (Heliospectra RX30) emitting about 1000 μmol/m^2/s photosynthetically active radiation (PAR).

Row | Substance | % photosensitizer remaining at 72 h (solid state) [1] | % photosensitizer remaining at 6 h (liquid state) [2] [%] | Inhibition, % (Dark) (Sclerotinia homoeocarpa [3]; dark) [%] | Inhibition, % (Light) (Sclerotinia homoeocarpa [3]; light about 180 μmol/m2/s PAR) [%] | Inhibition, % (Dark) (Sclerotinia homoeocarpa [4]; 10 uM) [%] | Inhibition, % (Light) (Sclerotinia homoeocarpa [4]; 10 uM) [%] | Inhibition, % (Dark) (Sclerotinia homoeocarpa [4]; 100 uM) [%] | Inhibition, % (Light) (Sclerotinia homoeocarpa [4]; 100 uM) [%] | Relative Inactivation (log[CFUcontrol mL^−1] − log[CFUtreatment mL^−1]), Dark ([5]; dark control plate) [log CFU mL^−1] | Relative Inactivation (log[CFUcontrol mL^−1] − log[CFUtreatment mL^−1]), Light ([5]; illumination 1 hour, about 1000 μmol/m^2/s PAR, where no colonies remained value set to 1 CFU/mL) [log CFU mL^−1] | Turf Quality [6] | log CFU/ml [7] [log CFU/ml]
1 | Chlorin e6, trisodium salt [Ce6Na3, reference compound] | 84.2 ± 7^ % | 19.4 ± 0.5 | 26 | 74 | −4 | 53 | 16 | 66 | −0.03 ± 0.13 | 0.39 ± 0.29 | 6 | 
2 | Protoporphyrin IX disodium salt [PP IX disodium salt] |  |  |  |  |  |  |  |  |  |  |  | 7.4

Reference: US20230128730A1, “OXYGEN IMPERMEABLE PORPHYRIN PHOTOSENSITIZER FILM COMPOSITION FOR APPLICATION TO PLANTS” (SUNCOR ENERGY INC., priority 2020, published 2023)
